How the values were obtained:
Type in all cases: biochemical
myeloperoxidase (MPO) [1] = molecular target: T1, myeloperoxidase (MPO) (Homo sapiens (Human), UniProt P05164); assay: MPO peroxidation assay (Amplex Red); conditions: Table 1
Method: MPO peroxidation activity was measured in 100 mM KPi (pH 7.4) by utilizing the non-fluorescent reagent Amplex Red (Invitrogen catalog #A12222) which can be oxidized to the highly fluorescent resorufin. Amplex Red is oxidized by the peroxidase action of MPO to resorufin. Reactions were carried out in 50 μL total volume by adding a 25 μL mixture of 200 pM myeloperoxidase and 40 nM H2O2 (Sigma #349887) to 100 nL inhibitor in 100% DMSO in a 384 well Perkin Elmer Optiplate. Enzyme and compound were preincubated for ten minutes at rt.
After the ten minute preincubation, 25 μL of an Amplex Red mixture containing 200 μM Amplex Red and 10 mM H2O2 was added to the plate. Kinetic determinations were carried out immediately on a Perkin Elmer Envision (15 minute kinetic read, Ex: 535 nm, Em: 590 nm).
IC50 values were calculated by determining the slope of the linear portion of the kinetic trace (180-540 secs), and using that calculated slope to determine % inhibition occurring at each concentration of inhibitor using the following equation:
[formula] where A=minimal Y value (activity level of inhibited sample), B=maximal Y value (activity level of uninhibited sample), C=Log IC50, D=Hill Slope, x=concentration of inhibitor. MPO Chlorination Assay

myeloperoxidase (MPO) [2] = molecular target: T1, myeloperoxidase (MPO); assay: MPO chlorination assay (APF)
Outline: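 Human MPO (200 pM) with 120 mM NaCl preincubated with inhibitor 10 minutes at rt in 100 mM KPi pH 7.4. Reaction started with APF mixture containing 10 μM H2O2; fluorescein fluorescence (ex 485/em 535 nm) read kinetically 3 minutes. IC50 from slopes of linear kinetic portion, fitted with a four-parameter Hill equation.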

[3] = molecular target: eosinophil peroxidase (EPX) (Homo sapiens (Human), UniProt P11678); assay: EPX bromination assay
Chain of eosinophil peroxidase (EPX) (P11678 251-715): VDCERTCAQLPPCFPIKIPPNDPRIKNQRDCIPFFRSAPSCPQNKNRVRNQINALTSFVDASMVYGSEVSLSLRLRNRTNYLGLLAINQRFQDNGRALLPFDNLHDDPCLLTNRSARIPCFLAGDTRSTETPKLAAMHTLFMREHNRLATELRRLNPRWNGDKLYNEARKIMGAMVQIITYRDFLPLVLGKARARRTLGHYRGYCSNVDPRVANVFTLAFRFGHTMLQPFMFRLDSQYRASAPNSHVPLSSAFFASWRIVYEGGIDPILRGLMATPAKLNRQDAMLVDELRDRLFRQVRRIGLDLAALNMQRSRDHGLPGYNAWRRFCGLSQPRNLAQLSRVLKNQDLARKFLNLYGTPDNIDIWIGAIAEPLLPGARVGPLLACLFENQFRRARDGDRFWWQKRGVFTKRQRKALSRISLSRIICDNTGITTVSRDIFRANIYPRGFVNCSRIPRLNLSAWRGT
Chain of eosinophil peroxidase (EPX) (P11678 140-250): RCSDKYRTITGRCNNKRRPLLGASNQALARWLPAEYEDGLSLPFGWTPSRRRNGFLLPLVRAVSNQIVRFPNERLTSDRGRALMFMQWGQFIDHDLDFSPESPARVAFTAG
Method: EPX bromination activity was measured in 100 mM KPi (pH 7.4) by monitoring the H2O2 catalyzed formation of 3-bromo tyrosine from tyrosine and potassium bromide. A 50 μl mixture of 0.6 μM EPX (Lee Biosolutions Cat #342-60) was added to 100 nL inhibitor in 100% DMSO in a 384 well REMP plate. Enzyme and compound were preincubated for ten minutes at rt.
After the ten minute preincubation of enzyme and inhibitor, 25 μL of a mixture containing 400 μM tyrosine and 1200 μM potassium bromide was added to the plate containing enzyme and inhibitor, followed by the addition of 25 μl of 20 μM H2O2. The reaction was allowed to proceed for 15 minutes, at which time it was quenched with 10 μL of 20% TCA. The final concentrations of all components were 0.3 μM EPX, 100 μM tyrosine, […], 5 μM H2O2, 0.1% DMSO, 2.0% TCA.
IC50 values were determined by determining the peak areas of 3-bromotyrosine present at the end of the 15 minute reaction and fitting the data to:
[formula] where A=minimal Y value (activity level of inhibited sample), B=maximal Y value (activity level of uninhibited sample), C=Log IC50, D=Hill Slope, x=concentration of inhibitor.
Reversed-phase analysis was performed on a Waters Acquity Ultra Performance LC system using an Acquity UPLC BEH C18 […], 2.1×50 mm analytical column. The column was maintained at 60° C. Samples were eluted using a gradient of 0%-100% B over 2.5 minutes, followed by equilibration with 100% A for 1 minute where A consisted of 0.1% TFA and B consisted of 90% MeOH/0.1% TFA at a flow rate of 0.6 mL/min. The retention time of 3-bromo tyrosine was 1.22 min.

[4] = MPO chlorination assay (APF), Table 1, read-out: APF IC50
[5] = MPO chlorination assay, ranges given, read-out: MPO chlorination assay IC50

T1 sequence (P05164 49-745): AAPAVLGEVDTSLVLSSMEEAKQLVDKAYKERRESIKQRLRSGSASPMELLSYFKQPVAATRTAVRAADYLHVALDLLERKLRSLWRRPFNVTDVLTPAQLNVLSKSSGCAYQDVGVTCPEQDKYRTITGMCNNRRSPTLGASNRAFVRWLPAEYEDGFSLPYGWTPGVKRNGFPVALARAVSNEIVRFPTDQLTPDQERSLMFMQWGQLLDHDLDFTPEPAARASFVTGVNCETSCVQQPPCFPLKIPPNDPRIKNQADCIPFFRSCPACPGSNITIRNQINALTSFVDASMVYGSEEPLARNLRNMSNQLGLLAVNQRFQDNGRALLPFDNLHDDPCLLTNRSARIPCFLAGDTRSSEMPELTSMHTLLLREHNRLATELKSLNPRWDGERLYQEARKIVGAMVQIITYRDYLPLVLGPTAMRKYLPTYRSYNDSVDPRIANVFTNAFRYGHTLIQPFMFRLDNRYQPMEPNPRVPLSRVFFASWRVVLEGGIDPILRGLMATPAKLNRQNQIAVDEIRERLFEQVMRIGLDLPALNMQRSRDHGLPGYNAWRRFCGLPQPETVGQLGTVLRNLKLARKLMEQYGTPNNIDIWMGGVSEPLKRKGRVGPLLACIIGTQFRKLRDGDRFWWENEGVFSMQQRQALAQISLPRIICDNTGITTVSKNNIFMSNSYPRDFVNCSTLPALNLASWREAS

IC50 (myeloperoxidase (MPO) [1]) [nM]	IC50 (myeloperoxidase (MPO) [2]; [4]) [nM]	Compound	IC50 [3] [nM]	IC50 (myeloperoxidase (MPO) [2]; [5]) [nM]
10	10	CC(Sc1cc(N)nc2[nH]nnc12)c1ccccc1 (centres unmarked) [Example 2, 7-((1-phenylethyl)thio)-3H-[1,2,3]triazolo[4,5-b]pyridin-5-amine]	1	
		Nc1cc(SCc2ccc(OC(F)(F)F)cc2)c2nn[nH]c2n1 [Example 7, 7-((4-(trifluoromethoxy)benzyl)thio)-3H-[1,2,3] triazolo[4,5-b]pyridin-5-amine]	20	≤ 60
		Nc1cc(SCc2c(Cl)cccc2Cl)c2nn[nH]c2n1 [Example 11, 7-((2,6-Dichlorobenzyl)thio)-3H-[1,2,3]triazolo[4,5-b]pyridin-5-amine]	2	≤ 60
		Cn1ncc2c(CSc3cc(N)nc4[nH]nnc34)cccc21 [Example 51, 7-(((1-methyl-1H-indazol-4-yl)methyl)thio)-3H-[1,2,3] triazolo[4,5-b]pyridin-5-amine]	6	60 to 200
790	570	Nc1nc(SCc2ccccc2CN2CCCC2)c2nn[nH]c2n1 [Example 166, 7-((2-(pyrrolidin-1-ylmethyl)benzyl)thio)-3H-[1,2,3]triazolo[4,5-d] pyrimidin-5-amine]		

— patent US10981879B2, “Thioether triazolopyridine and triazolopyrimidine inhibitors of myeloperoxidase” (BRISTOL-MYERS SQUIBB COMPANY, priority 2014, dated 2021)
